Patent publication US20090246281A1, “Soft steroid compositions for use in dry powder inhalers” (Norton Healthcare Ltd., priority 2003, published 2009)

Experiment: Stability of EDA dry mix versus EDA solutions in solvents
Assay type: physicochemical
Source text: In comparison, solutions prepared by dissolving 2 wt % EDA in a) pure methanol, b) pure ethanol, c) methanol+10 wt % water (pH 4.5) and d) ethanol+10% water (pH 4.5), were stable for 2 days, 2 days, 4 days and 4 days, respectively.

Compound: CCOC(=O)[C@@]1(OC(=O)C(Cl)Cl)CCC2C3CCC4=CC(=O)C=CC4(C)C3C(O)CC21C (stereo partly drawn) [EDA, ethyl 17α-dichloroacetoxy-11β-hydroxyandrosta-1,4-dien-3-one-17β-carboxylate]
- Time stable in solution (2 wt % EDA in ethanol+10% water (pH 4.5)): 4 days
- Time stable in solution (2 wt % EDA in methanol+10 wt % water (pH 4.5)): 4 days
- Time stable in solution (2 wt % EDA in pure ethanol): 2 days
- Time stable in solution (2 wt % EDA in pure methanol): 2 days
